Source: patent US4719224A, “Anti-inflammatory and analgesig thiophene acetic acid derivatives, compositions, and method of use therefor” (Roussel Uclaf, priority 1985, dated 1988)
Read-outs that look alike come from different tables or passages of the source.

Legend:
[1] = tested on: adjuvant arthritis (rear paw volume increase); assay: Anti-inflammatory activity, adjuvant arthritis (preventive treatment); assay type: in vivo; details: Rattus norvegicus; male rats, oral, day 0 to day 17, Freund type adjuvant; read-out: DA50 (dose that diminished by 50% the volume increase of the rear paws)
Experimental: A. Anti-inflammatory Activity-adjuvant arthritis (preventive treatment)
The injection of Freund type adjuvant into the rear paw of a rat provokes the rapid appearance of a primary inflammatory lesion in that paw and then after a latent period of 13 to 15 days, the appearance of a secondary arthritic condition occurs in the other rear paw The test was performed on male rats about 40 to 50 days old who received an intraplantary injection of 0.1 ml of Freund type adjuvant (suspension of 6 mg per ml of dead mycobacterium butyrium in vaseline oil). The rats received the test compound orally on day 0 (day of injection of adjuvant) until the day before they were killed (day 17). […] The activity of the test compounds was determined by the increase in the injected rear paw volume (primary and secondary inflammation) and the non-injected rear paw (secondary inflammation) as compared to the average volume of the corresponding paws of the arthritic control animals. The DA50 or the dose that diminished by 50% the volume increase of the rear paws of the treated animals as compared to the control animals was determined to be 8 mg/kg for the compound of Example 1.

cyclo-oxygenase = target: T1, cyclo-oxygenase (Bos taurus, UniProt O62664); assay: Inhibition of biosynthesis of prostaglandins in vitro (microsomal preparation of seminal vesicules); assay type: biochemical, bulls
T1 construct: a cyclo-oxygenase contained in a microsomal preparation of seminal vesicules of bulls; from tissue; host or cells: bull seminal vesicles, microsomal preparation
T1 sequence (O62664 25-600): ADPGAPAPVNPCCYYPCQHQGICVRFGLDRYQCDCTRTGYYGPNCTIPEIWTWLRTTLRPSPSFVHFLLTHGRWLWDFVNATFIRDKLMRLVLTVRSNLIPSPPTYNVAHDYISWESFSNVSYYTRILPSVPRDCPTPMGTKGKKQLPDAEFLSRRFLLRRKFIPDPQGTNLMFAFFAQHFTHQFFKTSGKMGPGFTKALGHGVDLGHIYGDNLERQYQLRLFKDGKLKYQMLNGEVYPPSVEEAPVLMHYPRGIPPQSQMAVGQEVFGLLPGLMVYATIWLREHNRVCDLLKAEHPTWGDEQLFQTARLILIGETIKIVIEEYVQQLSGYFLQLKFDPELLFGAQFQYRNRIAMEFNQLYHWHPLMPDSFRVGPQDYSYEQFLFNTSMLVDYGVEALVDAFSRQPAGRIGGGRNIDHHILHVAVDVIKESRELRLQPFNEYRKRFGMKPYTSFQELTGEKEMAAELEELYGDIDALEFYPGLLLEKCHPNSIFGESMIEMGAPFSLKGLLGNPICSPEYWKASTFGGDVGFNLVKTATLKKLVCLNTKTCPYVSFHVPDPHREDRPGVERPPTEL
Experimental: B. Inhibition of biosynthesis of prostaglandins in vitro
Arachidonic acid is converted into prostaglandins (PGs) of the […] by a cyclo-oxygenase contained in a microsomal preparation of seminal vesicules of bulls by the method of Tagekuchi et al [Biochemistry, Vol. 10 (1971), P. 2372]. The precursor at a concentration of 15×10^-6 M was incubated in the presence of a fixed concentration of proteins of the seminal vesicule preparation and the test product at 37° C. for 30 minutes. The reaction was stopped by immersion into boiling water for one minute and then centrifugation. The prostaglandins were determined by radio-immunoassay by the procedure of Dray et al [European J. Clin. Invest., Vol. 5 (1975), p. 311] to specifically evaluate for PGE2 and PGF2 α. The CI50 dose or dose that inhibited the activity by 50% was calculated for each of the two prostaglandins and was 2×10^-5 M for the compound of Example 1.

5-lipoxygenase = target: T2, 5-lipoxygenase (Rattus norvegicus, UniProt P12527); assay: Dosage of 5-lipoxygenase of rat neutrophiles (Leucotriene B4 by radioimmunoassay); assay type: cell-based; details: rat peritoneal neutrophiles, 10 μM ionophore A 23187, Leucotriene B4; read-out: CI50 5-lipoxygenase
T2 construct: Dosage of 5-lipoxygenase of rat neutrophiles; endogenous in cells; host or cells: rat peritoneal neutrophils elicited with sodium caseinate
T2 sequence (P12527 1-673): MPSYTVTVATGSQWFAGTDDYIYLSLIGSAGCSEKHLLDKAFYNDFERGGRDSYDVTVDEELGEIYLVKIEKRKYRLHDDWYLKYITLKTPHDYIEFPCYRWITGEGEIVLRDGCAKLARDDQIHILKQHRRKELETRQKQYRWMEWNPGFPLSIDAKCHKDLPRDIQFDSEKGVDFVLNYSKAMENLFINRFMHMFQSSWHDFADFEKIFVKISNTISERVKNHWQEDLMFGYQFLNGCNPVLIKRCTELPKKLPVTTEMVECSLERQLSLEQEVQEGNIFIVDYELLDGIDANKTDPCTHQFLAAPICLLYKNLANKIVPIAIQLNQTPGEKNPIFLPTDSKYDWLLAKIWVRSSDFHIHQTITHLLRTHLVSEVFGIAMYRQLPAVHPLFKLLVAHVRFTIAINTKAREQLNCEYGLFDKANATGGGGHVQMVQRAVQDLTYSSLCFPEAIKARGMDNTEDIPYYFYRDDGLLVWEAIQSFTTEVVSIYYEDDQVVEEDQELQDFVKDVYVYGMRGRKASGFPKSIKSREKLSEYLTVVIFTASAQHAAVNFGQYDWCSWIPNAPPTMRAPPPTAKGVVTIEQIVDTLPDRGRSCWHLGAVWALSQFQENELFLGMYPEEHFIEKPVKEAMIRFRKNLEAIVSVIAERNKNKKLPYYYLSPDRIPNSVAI
Experimental: 3. Dosage of 5-lipoxygenase of rat neutrophiles
Peritoneal neutrophile (5×10^6 cells/ml) obtained after intraperitoneal injection of 12% sodium caseinate were preincubated at 37° C. for 5 minutes in the presence of the test product or solvent used. The incubation was effected under the same conditions in the presence of 10 μM of ionophore A 23187 and […] of calcium chloride. After 5 minutes, the incubates were placed in ice and centrifuged at 3000 g.

SMILES	ED50 [1] [mg/kg]	IC50 (cyclo-oxygenase; arachidonic acid 15×10^-6 M, 37° C., 30 minutes, PGE2 and PGF2 α by radio-immunoassay, read-out: CI50 (dose that inhibited the activity by 50%), for each of PGE2 and PGF2 α) [µM]	IC50 (5-lipoxygenase) [µM]	IC50 (cyclo-oxygenase; table value, read-out: CI50 cyclooxygenase) [µM]
CC(C(=O)O)c1cc2c(s1)C1(CCCCC1)CC2 (stereo not drawn) [Example 1, 4',5'-dihydro-α'-methyl-spiro[cyclohexane-1,6']-6H-[cyclopenta (b)thiophene]-2'-acetic acid]	8	20	10	
CC(C(=O)N(C)O)c1cc2c(s1)C1(CCCCC1)CC2 (stereo not drawn) [Example 4, 4',5'-dihydro-α',N-dimethyl-N-hydroxy-spiro[cyclohexane-1,6']-6H-[cyclopenta (b)thiophene]-2-acetamide]			0.5	200
